In article PMC11579512, “Deoxybouvardin-glucoside induces apoptosis in non-small cell lung cancer cells by targeting EGFR/MET and AKT signaling pathway” (EXCLI Journal, 2024):

Tested on: HCC827 cells
Experiment: Multi-caspase assay, HCC827
Type: cell-based, human
Parameters: Caspase+ cells / Total Caspase+ cells / dead cells (multi-caspase assay) / Live cells (multi-caspase assay): unit not given here
Protocol: HaCaT cells were grown in DMEM, whereas HCC827 and HCC827GR cells were grown in RPMI 1640. All culture media were supplemented with FBS (10 %) and P/S (1 %), and the cells were grown at 37 °C in 5 % CO2.

[1] = HCC827, DBG 3 nM, mean of samples 1-3
[2] = HCC827, DBG 6 nM, mean of samples 1-3
[3] = HCC827, DBG 12 nM, mean of samples 1-3

COc1ccc(C[C@H]2C(=O)N[C@@H](C)C(=O)N(C)[C@H]3Cc4ccc(cc4)Oc4cc(ccc4O[C@@H]4O[C@H](CO)[C@@H](O)[C@H](O)[C@H]4O)C[C@@H](C(=O)N[C@H](C)C(=O)N[C@@H](C)C(=O)N2C)N(C)C3=O)cc1 [DBG, deoxybouvardin glucoside]
Caspase+/dead cells [1]: 11.80
Live cells (multi-caspase assay) [1]: 83.72
Total Caspase+ cells [1]: 16.23
dead cells (multi-caspase assay) [1]: 0.05
Caspase+ cells (HCC827, DBG 3 nM, sample 1): 5.19
Caspase+/dead cells (HCC827, DBG 3 nM, sample 1): 10.83
Live cells (multi-caspase assay) (HCC827, DBG 3 nM, sample 1): 83.88
Total Caspase+ cells (HCC827, DBG 3 nM, sample 1): 16.02
dead cells (multi-caspase assay) (HCC827, DBG 3 nM, sample 1): 0.10
Caspase+ cells (HCC827, DBG 3 nM, sample 2): 3.91
Caspase+/dead cells (HCC827, DBG 3 nM, sample 2): 12.71
Live cells (multi-caspase assay) (HCC827, DBG 3 nM, sample 2): 83.38
Total Caspase+ cells (HCC827, DBG 3 nM, sample 2): 16.62
dead cells (multi-caspase assay) (HCC827, DBG 3 nM, sample 2): 0.00
Caspase+ cells (HCC827, DBG 3 nM, sample 3): 4.20
Caspase+/dead cells (HCC827, DBG 3 nM, sample 3): 11.85
Live cells (multi-caspase assay) (HCC827, DBG 3 nM, sample 3): 83.89
Total Caspase+ cells (HCC827, DBG 3 nM, sample 3): 16.06
dead cells (multi-caspase assay) (HCC827, DBG 3 nM, sample 3): 0.05
Caspase+ cells [2]: 9.84
Caspase+/dead cells [2]: 14.26
Live cells (multi-caspase assay) [2]: 75.85
Total Caspase+ cells [2]: 24.10
dead cells (multi-caspase assay) [2]: 0.00
Caspase+ cells (HCC827, DBG 6 nM, sample 1): 10.64
Caspase+/dead cells (HCC827, DBG 6 nM, sample 1): 13.33
Live cells (multi-caspase assay) (HCC827, DBG 6 nM, sample 1): 76.03
Total Caspase+ cells (HCC827, DBG 6 nM, sample 1): 23.97
dead cells (multi-caspase assay) (HCC827, DBG 6 nM, sample 1): 0.00
Caspase+ cells (HCC827, DBG 6 nM, sample 2): 9.67
Caspase+/dead cells (HCC827, DBG 6 nM, sample 2): 14.53
Live cells (multi-caspase assay) (HCC827, DBG 6 nM, sample 2): 75.65
Total Caspase+ cells (HCC827, DBG 6 nM, sample 2): 24.20
dead cells (multi-caspase assay) (HCC827, DBG 6 nM, sample 2): 0.00
Caspase+ cells (HCC827, DBG 6 nM, sample 3): 9.21
Caspase+/dead cells (HCC827, DBG 6 nM, sample 3): 14.92
Live cells (multi-caspase assay) (HCC827, DBG 6 nM, sample 3): 75.87
Total Caspase+ cells (HCC827, DBG 6 nM, sample 3): 24.13
dead cells (multi-caspase assay) (HCC827, DBG 6 nM, sample 3): 0.00
Caspase+ cells [3]: 16.76
Caspase+/dead cells [3]: 9.18
Live cells (multi-caspase assay) [3]: 73.91
Total Caspase+ cells [3]: 25.94
dead cells (multi-caspase assay) [3]: 0.08
Caspase+ cells (HCC827, DBG 12 nM, sample 1): 17.38
Caspase+/dead cells (HCC827, DBG 12 nM, sample 1): 9.37
Live cells (multi-caspase assay) (HCC827, DBG 12 nM, sample 1): 73.00
Total Caspase+ cells (HCC827, DBG 12 nM, sample 1): 26.75
dead cells (multi-caspase assay) (HCC827, DBG 12 nM, sample 1): 0.05
Caspase+ cells (HCC827, DBG 12 nM, sample 2): 16.62
Caspase+/dead cells (HCC827, DBG 12 nM, sample 2): 9.35
Live cells (multi-caspase assay) (HCC827, DBG 12 nM, sample 2): 73.88
Total Caspase+ cells (HCC827, DBG 12 nM, sample 2): 25.97
dead cells (multi-caspase assay) (HCC827, DBG 12 nM, sample 2): 0.15
Caspase+ cells (HCC827, DBG 12 nM, sample 3): 16.27
Caspase+/dead cells (HCC827, DBG 12 nM, sample 3): 8.82
Live cells (multi-caspase assay) (HCC827, DBG 12 nM, sample 3): 74.86
Total Caspase+ cells (HCC827, DBG 12 nM, sample 3): 25.09
dead cells (multi-caspase assay) (HCC827, DBG 12 nM, sample 3): 0.05
